Assay results published in the supplement of paper PMC11451515.

Tested on: P12-Ichikawa
Assay: cell viability relative to DMSO control; higher = less cytotoxic
Settings: 48 h
Summary of the method: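 In 1536-well plates, 5 μl of leukemia cells were seeded per well: 500 cells/well for NOMO1 or SEM and 1000 cells/well for P12-Ichikawa. Each line had first been adapted for at least four passages in each medium. Library compounds in DMSO were pin-dosed at 11 threefold concentrations between 47 μM and 0.79 nM, and CellTiter-Glo One luminescence was read after 48 h at 37°C. Viability is a per-plate percentage relative to DMSO wells, with cell-free wells as background.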

[1] = HPLM + 10% dialyzed FBS, 0.000781 µM
[2] = HPLM + 10% dialyzed FBS, 0.00234 µM
[3] = HPLM + 10% dialyzed FBS, 0.00702 µM
[4] = HPLM + 10% dialyzed FBS, 0.0211 µM
[5] = HPLM + 10% dialyzed FBS, 0.0632 µM
[6] = HPLM + 10% dialyzed FBS, 0.19 µM
[7] = HPLM + 10% dialyzed FBS, 0.569 µM
[8] = HPLM + 10% dialyzed FBS, 1.71 µM
[9] = HPLM + 10% dialyzed FBS, 5.12 µM
[10] = HPLM + 10% dialyzed FBS, 15.4 µM
[11] = HPLM + 10% dialyzed FBS, 46.1 µM
[12] = RPMI 5 mM glucose + 10% FBS, 0.000781 µM
[13] = RPMI 5 mM glucose + 10% FBS, 0.00234 µM
[14] = RPMI 5 mM glucose + 10% FBS, 0.00702 µM
[15] = RPMI 5 mM glucose + 10% FBS, 0.0211 µM
[16] = RPMI 5 mM glucose + 10% FBS, 0.0632 µM
[17] = RPMI 5 mM glucose + 10% FBS, 0.19 µM
[18] = RPMI 5 mM glucose + 10% FBS, 0.569 µM
[19] = RPMI 5 mM glucose + 10% FBS, 1.71 µM
[20] = RPMI 5 mM glucose + 10% FBS, 5.12 µM
[21] = RPMI 5 mM glucose + 10% FBS, 15.4 µM
[22] = RPMI 5 mM glucose + 10% FBS, 46.1 µM
[23] = RPMI 5 mM glucose + 10% dialyzed FBS, 0.000781 µM
[24] = RPMI 5 mM glucose + 10% dialyzed FBS, 0.00234 µM
[25] = RPMI 5 mM glucose + 10% dialyzed FBS, 0.00702 µM
[26] = RPMI 5 mM glucose + 10% dialyzed FBS, 0.0211 µM
[27] = RPMI 5 mM glucose + 10% dialyzed FBS, 0.0632 µM
[28] = RPMI 5 mM glucose + 10% dialyzed FBS, 0.19 µM
[29] = RPMI 5 mM glucose + 10% dialyzed FBS, 0.569 µM
[30] = RPMI 5 mM glucose + 10% dialyzed FBS, 1.71 µM
[31] = RPMI 5 mM glucose + 10% dialyzed FBS, 5.12 µM
[32] = RPMI 5 mM glucose + 10% dialyzed FBS, 15.4 µM
[33] = RPMI 5 mM glucose + 10% dialyzed FBS, 46.1 µM

Row | SMILES | cell viability [1] [%] | cell viability [2] [%] | cell viability [3] [%] | cell viability [4] [%] | cell viability [5] [%] | cell viability [6] [%] | cell viability [7] [%] | cell viability [8] [%] | cell viability [9] [%] | cell viability [10] [%] | cell viability [11] [%] | cell viability [12] [%] | cell viability [13] [%] | cell viability [14] [%] | cell viability [15] [%] | cell viability [16] [%] | cell viability [17] [%] | cell viability [18] [%] | cell viability [19] [%] | cell viability [20] [%] | cell viability [21] [%] | cell viability [22] [%] | cell viability [23] [%] | cell viability [24] [%] | cell viability [25] [%] | cell viability [26] [%] | cell viability [27] [%] | cell viability [28] [%] | cell viability [29] [%] | cell viability [30] [%] | cell viability [31] [%] | cell viability [32] [%] | cell viability [33] [%]
1 | COC1=C(OCCCN2CCOCC2)C=CC\3=C1/N=C(/NC(=O)C4=CN=C(N)N=C4)N5CC/N=C35 | 110 | 97.6 | 99.5 | 100 | 96 | 85.8 | 78.2 | 73.7 | 70.1 | 60.4 | 60.8 | 87.2 | 95.4 | 90.2 | 91.2 | 86.9 | 74.7 | 62.5 | 56.8 | 56.3 | 47.1 | 42 | 87.8 | 95.3 | 98.3 | 99.1 | 87.3 | 82.5 | 67.4 | 62.6 | 58.7 | 49.1 | 45.8
2 | CC(=O)Oc1ccccc1C(=O)Nc1ncc([N+](=O)[O-])s1 | 102 | 103 | 106 | 107 | 104 | 104 | 110 | 109 | 95.9 | 97.3 | 36.5 | 92.8 | 102 | 95.5 | 98.3 | 96 | 104 | 98.5 | 98.4 | 79.9 | 83.5 | 75.6 | 95.7 | 97.5 | 100 | 95.6 | 94.2 | 95.4 | 96.3 | 93.5 | 82 | 85.2 | 79.9
3 | OCC(O)C(O)C(O)CO (configuration not stated) | 95.6 | 102 | 97.8 | 99.8 | 98.4 | 94.3 | 103 | 92.3 | 88.1 | 88.7 | 87.7 | 83.8 | 96 | 95.3 | 95.4 | 91.1 | 92.3 | 99 | 87.1 | 86.3 | 77.8 | 89.1 | 87.2 | 89.9 | 95.3 | 89.8 | 97.2 | 89.9 | 93.7 | 85.4 | 88.3 | 79.2 | 91.8
4 | C[C@@H](CN1CC(=O)NC(=O)C1)N1CC(=O)NC(=O)C1 | 104 | 111 | 110 | 109 | 108 | 75 | 47 | 11.5 | 13.7 | 4.45 | 2.49 | 101 | 104 | 98.5 | 116 | 111 | 97.7 | 80.7 | 18.1 | 18.9 | 5.1 | 4.44 | 94.6 | 108 | 96.8 | 110 | 105 | 84 | 61.3 | 19.7 | 20 | 6.43 | 4.62
5 | CCOC(=O)\C1=C\[C@]2(CC)CCCN3CCC4=C([C@H]23)[N]1C5=C4C=CC=C5 | 98.7 | 106 | 107 | 104 | 111 | 105 | 110 | 102 | 115 | 108 | 101 | 99.6 | 118 | 109 | 110 | 123 | 111 | 109 | 116 | 111 | 114 | 79.6 | 89.5 | 106 | 109 | 104 | 107 | 108 | 113 | 105 | 105 | 109 | 65.7
6 | CC[C@@H]([C@H](C)O)n1ncn(-c2ccc(N3CCN(c4ccc(OCC5CO[C@@](Cn6cncn6)(c6ccc(F)cc6F)C5)cc4)CC3)cc2)c1=O (some centres not stated) | 102 | 99.8 | 101 | 96.3 | 98.3 | 91.1 | 100 | 92.2 | 90.8 | 84.9 | 85.1 | 101 | 102 | 104 | 97.8 | 95 | 102 | 92.3 | 91.1 | 92.1 | 88.3 | 82.6 | 87.2 | 98 | 95.1 | 97.9 | 90.9 | 87.7 | 85.7 | 89.8 | 85.1 | 83.5 | 75
7 | CN1CC(=O)N2[C@H](c3ccc4c(c3)OCO4)c3[nH]c4ccccc4c3C[C@@H]2C1=O | 100 | 99.2 | 100 | 97.9 | 104 | 96.6 | 101 | 91.6 | 89.9 | 89.6 | 78.8 | 92.4 | 96.8 | 90.4 | 92.6 | 95 | 103 | 90 | 94.1 | 82.7 | 96.9 | 79.6 | 89.8 | 92 | 92.6 | 89.6 | 90.9 | 92.1 | 85.1 | 87 | 83.6 | 81 | 78.5
8 | Cc1ccccc1C(=O)Nc1ccc(C(=O)N2CCCC(O)c3cc(Cl)ccc32)c(C)c1 (configuration not stated) | 116 | 117 | 120 | 122 | 127 | 135 | 131 | 136 | 129 | 127 | 124 | – | – | – | – | – | – | – | – | – | – | – | – | – | – | – | – | – | – | – | – | – | –
